Reference: patent publication EP4631940A1, “COMPOUND TARGETING PAN-KRAS PROTEIN DEGRADATION AGENT AND USE THEREOF” (Betta Pharmaceuticals Co., Ltd., priority 2022, dated 2024)
Like-named read-outs stand apart in the source and are kept apart here.

How the values were obtained:
[1] = test system: SW620; test: Cell proliferation experiment (CellTiter-Glo); assay type: cell-based; settings: read-out: IC50(nM) SW620
[2] = target: T1, KRAS G12D (Homo sapiens, UniProt P01116, G12D)
[3] = test system: AGS; test: Cell proliferation experiment (CellTiter-Glo); assay type: cell-based; settings: read-out: IC50(nM) AGS
[4] = target: T1, KRAS G12D; test: cell-based; settings: AGS
[5] = SW620, KRAS mutation type G12V, 96 h incubation
[6] = AGS, KRAS mutation type G12D, 96 h incubation

“(7-(8-ethyl-7-fluoro-3-hydroxynaphthalen-1-yl)-8-fluoro-4-(R)-3-hydroxy-3-methylpiperidin-1-y l)pyrido[4,3-d]pyrimidin-2-yl)oxy)methyl)-6-methylenehexahydro-1H-pyrrolizin-3-yl)methyl ((3-(1-((S)-1-(2S,4R)-4-hydroxy-2-(S)-1-(4-methylthiazol-5-yl)phenyl)ethyl)carbamoyl)pyrrolidi n-1-yl)-3-methyl-1-oxobutan-2-yl)-1H-1,2,3-triazol-4-yl)bicyclo[1.1.1]pentan-1-yl)methyl)carba mate [Compound 126]” was tested, and the IC50 [1] was 246 nM, the DC50 [2] was 23 nM and the “Dmax (%)” value [2] was 95%. For the same compound, the IC50 [3] was 32 nM.

In the case of `CCc1c(F)ccc2cc(O)cc(-c3ncc4c(N5CCC[C@@](C)(O)C5)nc(OCC5(CN6CCC(N(C)c7ccc(-c8cn([C@H](C(=O)N9C[C@H](O)C[C@H]9C(=O)N[C@@H](C)c9ccc(-c%10scnc%10C)cc9)C(C)C)nn8)cn7)CC6)CC5)nc4c3F)c12` [Compound 154], the Dmax [4] is reported as 95%, the DC50 [2] is reported as 5.5 nM and the IC50 ([3]; Homo sapiens, AGS, 96 h) is reported as 13 nM.

`CCc1c(F)ccc2cc(O)cc(-c3ncc4c(N5CCC[C@@](C)(O)C5)nc(OCC5(CN6CCC(Nc7ccc(-c8cn([C@H](C(=O)N9C[C@H](O)C[C@H]9C(=O)N[C@@H](C)c9ccc(-c%10scnc%10C)cc9)C(C)C)nn8)cn7)CC6)CC5)nc4c3F)c12` [Compound 152] gave a Dmax [4] of 95%, a DC50 [2] of 27 nM and an IC50 ([3]; Homo sapiens, AGS, 96 h) of 30 nM.

For `CCc1c(F)ccc2cc(O)cc(-c3ncc4c(N5CCC[C@@](C)(O)C5)nc(OCC5(CN6CCN(CC78CC(c9cn([C@H](C(=O)N%10C[C@H](O)C[C@H]%10C(=O)N[C@@H](C)c%10ccc(-c%11scnc%11C)cc%10)C(C)C)nn9)(C7)C8)CC6)CC5)nc4c3F)c12` [Compound 148], the Dmax [4] was 95%, the DC50 [2] was 13 nM and the IC50 ([3]; Homo sapiens, AGS, 96 h) was 15 nM.

In the case of `CCc1c(F)ccc2cc(O)cc(-c3ncc4c(N5CCC[C@@](C)(O)C5)nc(OC[C@]56CCCN5[C@@H](COc5ccc(-c7cn([C@H](C(=O)N8C[C@H](O)C[C@H]8C(=O)N[C@@H](C)c8ccc(-c9scnc9C)cc8)C(C)C)nn7)cn5)CC6)nc4c3F)c12` [Compound 157], the Dmax [4] is reported as 95%, the DC50 [2] is reported as 7.7 nM and the IC50 ([3]; Homo sapiens, AGS, 96 h) is reported as 19 nM.

`CCc1c(F)ccc2cc(O)cc(-c3ncc4c(N5CCC[C@@](C)(O)C5)nc(OCCN5CCC(COc6cc([C@H](C(=O)N7C[C@H](O)C[C@H]7C(=O)N[C@@H](C)c7ccc(-c8scnc8C)cc7)C(C)C)on6)CC5)nc4c3F)c12` [Compound 80] showed a Dmax [4] of 95%, a DC50 [2] of 40 nM and an IC50 ([3]; Homo sapiens, AGS, 96 h) of 63 nM.

`CCc1c(F)ccc2cc(O)cc(-c3ncc4c(N5CCC[C@@](C)(O)C5)nc(OCC5(CN6CCC(CN7CCN(c8cc([C@H](C(=O)N9C[C@H](O)C[C@H]9C(=O)N[C@@H](C)c9ccc(-c%10scnc%10C)cc9)C(C)C)on8)CC7)CC6)CC5)nc4c3F)c12` [Compound 104] showed a Dmax [4] of 95%, a DC50 [2] of 27 nM and an IC50 ([3]; Homo sapiens, AGS, 96 h) of 39 nM.

With `C=C1CN2[C@H](COc3cc(-c4cn([C@H](C(=O)N5C[C@H](O)C[C@H]5C(=O)N[C@@H](C)c5ccc(-c6scnc6C)cc5)C(C)C)nn4)ccn3)CC[C@@]2(COc2nc(N3CCC[C@@](C)(O)C3)c3cnc(-c4cc(O)cc5ccc(F)c(CC)c45)c(F)c3n2)C1` [Compound 121] the Dmax [4] was 95%, the DC50 [2] was 30 nM and the IC50 ([3]; Homo sapiens, AGS, 96 h) was 40 nM.

`CCc1c(F)ccc2cc(O)cc(-c3ncc4c(N5CCC[C@@](C)(O)C5)nc(OCC5(CN6CCC(Oc7cnc(-c8cn([C@H](C(=O)N9C[C@H](O)C[C@H]9C(=O)N[C@@H](CC(=O)NC)c9ccc(-c%10scnc%10C)cc9)C(C)C)nn8)cn7)CC6)CC5)nc4c3F)c12` [Compound 190, (2S,4R)-1-((S)-2-(4-(5-(1-((((7-(8-ethyl-7-fluoro-3-hydroxynaphthalen-1-yl)-8-fluoro-4-(((R)-3-hydroxy-3-methylpiperidin-1-yl)pyrido[4,3-d]pyrimidin-2-yl)oxy)methyl)cyclopropyl)methyl)piperidin-4-yl)oxy)-2-ylpyrazin-1H-1,2,3-triazol-1-yl)-3-methylbutanoyl)-4-hydroxy-N-((S)-3-(methylamino)-1-(4-(4-methylthiazol-5-yl)phenyl)-3-oxopropyl)pyrrolidine-2-carboxamide] gave an IC50 [1, 5] of 38 nM and an IC50 [3, 6] of 11 nM.

Work on `C=C1CN2[C@H](COC(=O)N3CCC4(CC3)CC(C(=O)N[C@H](C(=O)N3C[C@H](O)C[C@H]3C(=O)N[C@@H](C)c3ccc(-c5scnc5C)cc3)C(C)(C)C)C4)CC[C@@]2(COc2nc(N3CCC[C@@](C)(O)C3)c3cnc(-c4cc(O)cc5ccc(F)c(CC)c45)c(F)c3n2)C1` [Compound 140] yielded an IC50 [1] of 167 nM and an IC50 [3] of 28 nM.

Work on `CCc1c(F)ccc2cc(O)cc(-c3ncc4c(N5CCC[C@@](C)(O)C5)nc(OCC5(CN6CCC(N7CCN(c8cnc(-c9cn([C@H](C(=O)N%10C[C@H](O)C[C@H]%10C(=O)N[C@@H](C)c%10ccc(-c%11scnc%11C)cc%10)C(C)C)nn9)cn8)CC7)CC6)CC5)nc4c3F)c12` [Compound 196, (2S,4R)-1-((S)-2-(4-(5-(4-(1-(((7-(8-ethyl-7-fluoro-3-hydroxynaphthalen-1-yl)-8-fluoro-4-(((R)-3-hydroxy-3-methylpiperidin-1-yl)pyrido[4,3-d]pyrimidin-2-yl)oxy)methyl)cyclopropyl)methyl)piperidin-4-yl)piperazin-1-yl)pyrazin-2-yl)-1H-1,2,3-triazol-1-yl)-3-methylbutanoyl)-4-hydroxy-N-(((S)-1-(4-(4-methylthiazol-5-yl)phenyl)ethyl)pyrrolidine-2-carboxamide] yielded an IC50 [1, 5] of 15 nM and an IC50 [3, 6] of 4 nM.

`CCc1c(F)ccc2cc(O)cc(-c3ncc4c(N5CCCC(C)(O)C5)nc(OCC5(CN6CCN(Cc7cc(-c8cn([C@H](C(=O)N9C[C@H](O)C[C@H]9C(=O)N[C@@H](C)c9ccc(-c%10scnc%10C)cc9)C(C)C)nn8)n(C)n7)CC6)CC5)nc4c3F)c12` (stereo partly drawn) [Compound 202] was tested, and the IC50 [1, 5] was 54 nM and the IC50 [3, 6] was 15 nM.

Work on `CCc1c(F)ccc2cccc(-c3ncc4c(N5CCC[C@@](C)(O)C5)nc(OCC5(CN6CCC(Oc7cnc(-c8cn([C@H](C(=O)N9C[C@H](O)C[C@H]9C(=O)N[C@@H](C)c9ccc(-c%10scnc%10C)cc9)C(C)C)nn8)cn7)CC6)CC5)nc4c3F)c12` [Compound 201] yielded an IC50 [1, 5] of 46 nM and an IC50 [3, 6] of 13 nM.

In the case of “(2S,4R)-1-((2S)-2-(4-(5-(1-(4-((1-(((7-(8-ethyl-7-fluoro-3-hydroxynaphthalen-1-yl)-8-fluoro-4-(( R)-3-hydroxy-3-methylpiperidin-1-yl)pyrido[4,3-d]pyrimidin-2-yl)oxy)methyl)cyclopropyl)meth yl)piperidin-1-yl)ethyl)piperidin-2-yl)-1H-1,2,3-triazol-1-yl)-3-methylbutanoyl)-4-hydroxy-N-(( S)-1-(4-(4-methylthiazol-5-yl)phenyl)ethyl)pyrrolidine-2-carboxamide [Compound 194]”, the IC50 [1] is reported as 26 nM and the IC50 [3] is reported as 5.5 nM.

“(2S,4R)-1-((S)-2-(4-(5-(3-(1-(((7-(8-ethyl-7-fluoro-3-hydroxynaphthalen-1-yl)-8-fluoro-4-((R)-3 -hydroxy-3-methylpiperidin-1-yl)pyrido[4,3-d]pyrimidin-2-yl)-3-methylbutanoyl)-4-hydroxy-N-((S)-1-(4-(4-methylthiazol-5-yl)phenyl)ethyl)pyrrolidine-2-carboxamide [Compound 200]” gave an IC50 [1, 5] of 20 nM and an IC50 [3, 6] of 4.6 nM.
